In article PMC10967572, “Induction of Oxidative Stress and Ferroptosis in Triple-Negative Breast Cancer Cells by Niclosamide via Blockade of the Function and Expression of SLC38A5 and SLC7A11” (Antioxidants, 2024):

Legend:
[1] = test system: MB231 cells and TXBR100 cells; assay: Cellular glutathione levels (GSH-Glo assay); type: cell-based, human; conditions: niclosamide 2 μM, 24 h; MB231 and TXBR100
Method: Control and niclosamide-treated cells were used for measurement of cellular glutathione levels as instructed in the manufacturer’s protocol (GSH-Glo assay, Promega, Madison, WI, USA). The levels of malondialdehyde were measured using lipid peroxidation kit [Lipid Peroxidation (MDA) Assay Kit (MAK085), Millipore-sigma, St. Louis, MO, USA].

[2] = test system: MB231 cells and TXBR100 cells; assay: Lipid radical (ferroptosis) assay with LipiRadical Green; type: cell-based, human; conditions: niclosamide 5 μM; MB231 30 min, TXBR100 2 h
Method: Lipid radical (ferroptosis) assay and iron assay were performed as follows. Cells were cultured on a 25 mm glass coverslip until they reached 60–70% confluency (~48 h). At the time of the experiment, cells were washed with NaCl buffer, pH 7.5 and then incubated with 1 µM of LipiRadical Green (a lipid radical detection reagent, FDV-0042, Funakoshi, Tokyo, Japan) or Ferro-orange (an iron detection probe, F374, Dojindo, Rockville, MD, USA) in NaCl buffer, pH 7.5 for 20 min and then washed with NaCl buffer, pH 7.5. To analyze the effects of modifiers of iron levels and lipid peroxidation, the cells were co-treated with the modifiers and the respective fluorescent probe for 20 min and then washed. The glass coverslip containing the cells was then probed under an inverted microscope. The fluorescence imaging was captured using a Nikon T1-E microscope with A1 confocal super-resolution module (Nikon, Dallas, TX, USA), with a 60× objective, at 488 nm. The images represent a maximum projection intensity derived from a Z-stack. The fluorescence quantification was performed by measuring the corrected total cell fluorescence (CTCF) using Image J (version: 2.14.0/1.54f) and the following formula; CTCF = (integrated density) − (area of cell of interest) × (mean fluorescence of background).

MB231 xenograft tumors = assay: qRT-PCR and Western blot of xenograft tumor tissue; type: in vivo, mouse; conditions: niclosamide 4 mg/kg daily i.p.
Method: (§1) Total RNA was extracted from cells using TRIzol Reagent (ThermoFisher Scientific, Waltham, MA, USA) and the RNA was reverse-transcribed using a high-capacity cDNA reverse transcription kit (ThermoFisher Scientific, Waltham, MA, USA) according to the manufacturer’s protocol. Quantitative RT-PCR was performed with Takara Taq Hot Start Version (TaKaRa Biotechnology, Shiga, Japan) or Power SYBR Green PCR master mix (Bio-Rad, Hercules, CA, USA). Primer sequences are shown in Supplemental Table S1. The relative mRNA expression was determined by the 2^−∆∆Ct method. Additionally, 18S was used as a housekeeping gene for normalization.
(§2) Cells and tumor tissues were lysed in Pierce™ RIPA buffer (ThermoFisher Scientific, Waltham, MA, USA) supplemented with Halt™ Protease and Phosphatase Inhibitor Cocktail (ThermoFisher Scientific, Waltham, MA, USA). Homogenates were centrifuged, and supernatants were used for protein measurement via Pierce™ BCA Protein Assay Kit (ThermoFisher Scientific, Waltham, MA, USA). […] Western blot samples were prepared in Laemmli sample buffer (Bio-Rad Laboratories, Hercules, CA, USA). They were loaded onto a SDS–PAGE gel and transferred onto a PVDF membrane (Bio-Rad Laboratories, Hercules, CA, USA). The membrane was blocked and antibodies diluted in 5% nonfat dry milk (Bio-Rad Laboratories, Hercules, CA, USA) or in 5% bovine serum albumin (Irvine Scientific, Santa Ana, CA, USA) were used. Protein bands were visualized using Pierce™ ECL Western Blotting Substrate (ThermoFisher Scientific, Waltham, MA, USA) and developed on the autoradiography film (Santa Cruz, Dallas, TX, USA). Primary antibodies were purchased either from Cell Signaling (Danvers, MA, USA) [anti-GPX4 (#52455), anti-FTH (#4393), anti-HSP60 (#12165), anti-phospho-p70S6K (#9205), anti-p70S6K (#2708)] or from Abcam (Waltham, MA, USA) [Nrf2 (#ab62352)]. Secondary antibody Horseradish peroxidase-conjugated goat anti-rabbit IgG (#1706515) was purchased from Bio-Rad Laboratories (Hercules, CA, USA). For quantification of protein levels by the densitometric analysis, the experiment was carried out in triplicate and the data were collected from the resultant three Western blots.
(§3) Female athymic nude mice (4-week-old) were purchased from Jackson Laboratories and housed under standard conditions. MDA-MB231 cells were injected into lower mammary fat pad (5 × 10^6 cells). All cells were suspended in serum-free media and Matrigel (1:1 ratio), with 100 µL of suspension being injected into each mouse. Mice were treated by daily intraperitoneal injection of niclosamide (4 mg/kg/day) and vehicle (dimethylsulfoxide) control. The treatment began when the tumor size was 100–150 mm^3. Tumor size was measured biweekly with a caliper, with tumor volume calculated using the formula (width^2 × length)/2. Tumors were allowed to grow for 7 weeks; mice were then euthanized via isoflurane […] and tumors harvested. The animal study protocol was approved by the Texas Tech University Health Sciences Center Institutional Animal Care and Use Committee (IACUC protocol number 18005) and the experiments were conducted in the same institution. RNA and protein were prepared from the tumor tissue for qRT-PCR and Western blotting.

MB231 xenograft = assay: Mouse xenograft tumor growth; type: in vivo; conditions: MB231 xenograft in nude mice; niclosamide 4 mg/kg daily intraperitoneal
Method: as §3

MB231 and TXBR100 cells = assay: Matrigel cell invasion assay; type: cell-based; conditions: Homo sapiens, niclosamide 2.5 μM, 24 h, read-out: inhibition of cell invasion and migration
Method: The effect of niclosamide on cell invasion was monitored using Corning® BioCoat™ Matrigel® Invasion assay kit according to the manufacturer’s instructions. Briefly, cells were serum-starved and their invasion to the other side of the membrane was analyzed in the presence or absence of niclosamide for 24 h. At the end of this treatment, non-invaded cells on the top side of the membrane were removed by scrubbing. Cells which invaded the other side of the membrane were fixed with 100% methanol, stained with crystal violet and counted under an inverted microscope; images were also captured.

[3] = test system: TNBC cells (MB231 and TXBR100); assay: Colony formation (clonogenic) assay; type: cell-based, human; conditions: niclosamide 0.5 μM, 10 days
Description: We performed the colony formation (clonogenic) assay with different doses of niclosamide on two different TNBC cell lines. Initial seeding was done with 500 cells/well and culture was continued for 10 days with culture medium replaced with fresh medium with freshly prepared niclosamide every other day. At the end of the 10-day time period, the medium was removed and the colonies were fixed with ice-cold methanol/acetone and then stained with Giemsa stain.

SLC38A5 and SLC7A11 mRNA = assay: qRT-PCR of SLC38A5 and SLC7A11 mRNA in TNBC cells; type: cell-based, human; conditions: niclosamide 2 μM, 24 h; MB231 and TXBR100
Method: as §1

GPX4, FTH1, p-S6K = assay: Western blot of GPX4, ferritin heavy chain and p-S6K in TNBC cells; type: cell-based, human; conditions: niclosamide 2 μM, 24 h
Method: as §2

With O=C(Nc1ccc([N+](=O)[O-])cc1Cl)c1cc(Cl)ccc1O [niclosamide] the “decrease in glutathione levels” value [1] was 60–70%, the “ferroptosis (lipid radical fluorescence)” value [2] was “induced ferroptosis” and the “Nrf2 protein levels in tumors” value (MB231 xenograft tumors; Western blot) was “markedly decreased”. The “ferritin heavy chain protein levels in tumors” value (MB231 xenograft tumors; Western blot) was “decreased”, the “Nrf2 mRNA level in tumors” value (MB231 xenograft tumors; qRT-PCR) was “markedly decreased” and the “SLC7A11 mRNA level in tumors” value (MB231 xenograft tumors; qRT-PCR) was “markedly decreased”. The “SLC38A5 mRNA level in tumors” value (MB231 xenograft tumors; qRT-PCR) was “markedly decreased”, the “growth of the tumors” value (MB231 xenograft) was “drastic reduction” and the inhibition at […] (MB231 and TXBR100 cells) was greater than 75%. The “decrease in colony formation” value [3] was greater than 50%, the “SLC7A11 mRNA level” value (SLC38A5 and SLC7A11 mRNA) was “decreased” and the “SLC38A5 mRNA level” value (SLC38A5 and SLC7A11 mRNA) was “decreased”. The “glutathione peroxidase 4 protein levels” value (GPX4, FTH1, p-S6K; MB231 and TXBR100) was “decreased”, the ferritin levels (GPX4, FTH1, p-S6K; MB231 and TXBR100 (more pronounced in TXBR100)) was “lower” and the “p70S6K and phospho-p70S6K levels (mTOR signaling)” value (GPX4, FTH1, p-S6K; both TNBC cell lines) was “profound decrease”.
